pIC50: −log10 of the molar value.
Each compound was assayed against Alkaline phosphatase, placental type (Homo sapiens, UniProt P05187) (assay: PLAP enzyme inhibitors, dose response, selectivity assay for human IAP inhibitor project, biochemical, uHTS hits, luminescence (AID 488892)).
Alkaline phosphatase, placental type, sequence (P05187 whole entry, looked up): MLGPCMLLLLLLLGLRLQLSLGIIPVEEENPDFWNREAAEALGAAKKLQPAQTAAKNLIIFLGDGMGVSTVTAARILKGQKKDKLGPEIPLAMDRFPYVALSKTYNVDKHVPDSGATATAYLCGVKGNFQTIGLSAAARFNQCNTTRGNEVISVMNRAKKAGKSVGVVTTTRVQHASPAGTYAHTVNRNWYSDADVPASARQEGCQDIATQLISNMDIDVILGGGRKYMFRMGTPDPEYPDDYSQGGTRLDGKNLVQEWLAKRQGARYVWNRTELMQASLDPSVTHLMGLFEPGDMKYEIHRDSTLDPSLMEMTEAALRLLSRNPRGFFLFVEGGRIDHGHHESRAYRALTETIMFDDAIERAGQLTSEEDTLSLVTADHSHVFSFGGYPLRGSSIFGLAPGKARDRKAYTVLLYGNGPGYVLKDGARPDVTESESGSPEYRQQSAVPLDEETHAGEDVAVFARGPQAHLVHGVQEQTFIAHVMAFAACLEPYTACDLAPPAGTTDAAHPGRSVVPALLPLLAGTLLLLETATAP
In the case of `CC(N=Nc1ccccc1[N+](=O)[O-])c1ccc([N+](=O)[O-])cc1` (stereo not drawn), the pIC50 was < 4.00.
With `CCOC1=CC(=Cc2c(C)[nH]oc2=O)C=C(Br)C1=O` [4-[(Z)-(3-bromo-5-ethoxy-4-oxo-1-cyclohexa-2,5-dienylidene)methyl]-3-methyl-2H-isoxazol-5-one] the pIC50 was 4.45.
For `C=c1[nH]n(Cc2ccccc2)c(=O)c1=Cc1ccc(N(C)C)cc1` [(4Z)-4-[[4-(dimethylamino)phenyl]methylidene]-5-methyl-2-(phenylmethyl)-3-pyrazolone], the pIC50 was 4.42.

Source: BindingDB's records for doi:10.7270/Q2W957N3 (Burnham Center For Chemical Genomics, 2010)
